# “Also recorded” adds a separate entry of the source. Where two headings read alike, the source gives them in different places.
# Experiments:
# CI-M6PR = CI-M6PR (Homo sapiens, UniProt P11717); assay: Human CI-M6PR binding assay (ELISA); design: purchased R&D 6418-GR-050
# Protocol: Nunc black solid bottom MaxiSorp plates were allowed to incubate overnight at 4° C. coated with 1 μg/mL of recombinant human CI-M6PR protein (R&D, 6418-GR-050) in 50 μL PBS. The next day, coating was decanted and plates were washed 3× with PBS. Wells were blocked with 350 μL of 3% BSA-PBS for 1 hour at room temperature. […] 50 μL of diluted conjugates were added to the plate and allowed to incubate at room temperature for 2 hours. After incubation, solutions in plate were decanted and washed with 350 μL of 0.05% PBS-Tween20 three times, drying the plate each wash on a clean paper towel. 50 μL of peroxidase AffiniPure Mouse Anti-Human IgG (Jackson Immuno, 209-035-088) diluted in 3% BSA-PBS to […] was added to the plate and allowed to incubate for 1 hour at room temperature in the dark. After incubation, solutions in plate were decanted and washed with 350 μL of 0.05% PBS-Tween20 3 times, drying the plate each wash on a clean paper towel. […] 50 μL of QuantaBlu solution was added to wells and allowed to incubate for 5-10 minutes at room temperature. After incubation, plates were read on a Perkin Elmer EnVision using photometric 340 and Umbelliferone 460 filter sets for excitation and emission, respectively. Data analysis and non-linear curve-fitting was performed using GraphPad Prism.
# [1] = tested on: wild type (WT) K562 cells; assay: CI-M6PR mediated uptake of Alexa488-IgE in wild type K562 cells; type: cell-based; details: omalizumab conjugates, average loading DAR9, FIG. 14
# Protocol: The uptake of exemplary omalizumab (anti-IgE) antibody conjugates of compound 520 (I-7) (average loading DAR9) versus exemplary compound 537 (I-66) (average loading DAR9) was assessed in wild type (WT) K562 cells and CI-M6PR knockout (KO) cells using a similar method of that described above.
# Hep G2 cells = assay: Conjugate-mediated uptake of IgG2a into Hep G2 cells; type: cell-based, human; details: one hour incubation, FIG. 13; 816 DAR6, 817 DAR4, 520 (I-7) DAR4
# Protocol: (§1) The anti-IgG2a conjugates were bound to IgG2a-Alexa488, as follows: equal molar ratios of anti-IgG2a and IgG2a-Alexa488 were added in tissue culture media for 30 minutes at room temperature. The resulting anti-IgG2a:IgG2a antibody-Alexa488 compositions were added to Jurkat cells (100 k cells/50 ul per well, n=2), and Alexa488 fluorescence levels were measured (via Alexa488 measurement) at 1 hour and 24 hours by flow cytometry. As the fluorescently labelled target (IgG2a antibody) accumulates in cells, the fluorescence presents a way to measure total intracellular uptake by cells over time.
# The uptake of antibody conjugates of exemplary M6PR or ASGPR binding compounds was assessed in Hep G2 cells, using a method similar to that described in Example above. […] Compounds 816 and 817 were prepared according to methods described in International Application No. PCT/US2021/012846, filed Jan. 8, 2021.
# Jurkat cells [2] = assay: Conjugate-mediated uptake of IgG2a-Alexa488 into Jurkat cells; type: cell-based; details: for uptake into Jurkat cells (cell fluorescence vs conjugate concentration): DAR 9-11 per conjugate
# Protocol: as §1
# Jurkat cells [3] = assay: Uptake of IgE-Alexa488 target by omalizumab conjugates in Jurkat cells; type: cell-based; details: 1 hour, FIGS. 15-17
# Protocol: The omalizumab conjugates of Example 142 were bound to IgE-Alexa488 (prepared according to Example 144), as follows: equal molar ratios of omalizumab (anti-IgE) conjugate and IgE-Alexa488 were added in tissue culture media for 30 minutes at room temperature. The resulting anti-IgE conjugate:IgE antibody-Alexa488 compositions were added to Jurkat cells (100 k cells/50 ul per well, n=2), and Alexa488 fluorescence levels in the cells were measured at 1 hour by flow cytometry. As the fluorescently labelled target (IgE antibody) accumulates in cells, the fluorescence presents a way to measure total intracellular uptake by cells over time.
# [4] = biological target: T1, M6PR (Domains I-9, R&D Systems) (Homo sapiens, UniProt P11717); assay: General M6PR binding assay (fluorescence polarization); details: Table 16F, unconjugated compounds, 100 nM M6PR, 1 nM probe, 2 hr incubation
# T1 construct: with 100 nM M6PR (Domains I-9, R&D Systems) and 1 nM probe; purchased R&D Systems
# Protocol: M6PR binding was measured in black 96-well plates using a fluorescence polarization assay. A fluorescent probe consisting of a reference M6Pn ligand linked to Cy5 was synthesized. Test compounds were resuspended in DMSO and 3-fold serial dilutions were made at 100× final concentrations. Binding reactions were conducted in 100 μl final volume in 20 mM HEPES (pH 7.5) 100 mM NaCl 0.015% Tween-20 1% DMSO with 100 nM M6PR (Domains I-9, R&D Systems) and 1 nM probe. Fluorescence polarization was measured using Xex=620 nm, λem=688 nm on an Envision plate reader (Perkin Elmer) after 2 hr incubation time. Dose responses were conducted in duplicate and normalized to the response with DMSO (high) and 1 μM reference compound (low) on each plate. IC50 values were determined by fitting to 4-parameter curves in GraphPad Prism.
# [5] = Serum pharmacokinetic analysis of rIgG1 (anti-IgG2a) antibody conjugates; type: in vivo, mice; details: intravenous 10 μg/mouse, serum 0.5-24 h, compared to Compound I-7 conjugate
# Protocol: A pharmacokinetic analysis of the rIgG1 (anti-IgG2a) antibody conjugates described in the previous example was performed in mice. In particular, […] mice were intravenously administered each rIgG1 antibody conjugate at 10 μg/mouse (5 mice per group). Blood was collected at 0.5, 1, 2, 6, and 24 hours and serum rIgG1 was analyzed using an ELISA kit (Abcam) according to the manufacturer's instructions. Samples were run across 3 different plates with unconjugated rIgG1 controls (UNLB-anti-IgG2a rIgG1) included on all 3 plates. FIGS. 8A-8C show the serum levels of anti-IgG2a conjugated to Compound I-7 (dar8) and (dar4) (FIG. 8A), anti-IgG2a conjugated to Compound I-10 and anti-IgG2a conjugated to Compound I-11 (FIG. 8B), and anti-IgG2a conjugated to Compound I-9 and anti-IgG2a conjugated to Compound I-12 (FIG. 8C) over time.
# [6] = antibody conjugate, average loading DAR 9, read-out: EC50 (nM) in M6PR binding assay
# [7] = Table 16E, conjugate, m average DAR 9.5, read-out: EC50 in M6PR binding assay for conjugates of monovalent compounds of varying linker length and loading
# [8] = antibody conjugate, average loading DAR 9.5, read-out: EC50 (nM) in M6PR binding assay
# CI-M6PR, sequence (P11717 41-1365 limits assumed): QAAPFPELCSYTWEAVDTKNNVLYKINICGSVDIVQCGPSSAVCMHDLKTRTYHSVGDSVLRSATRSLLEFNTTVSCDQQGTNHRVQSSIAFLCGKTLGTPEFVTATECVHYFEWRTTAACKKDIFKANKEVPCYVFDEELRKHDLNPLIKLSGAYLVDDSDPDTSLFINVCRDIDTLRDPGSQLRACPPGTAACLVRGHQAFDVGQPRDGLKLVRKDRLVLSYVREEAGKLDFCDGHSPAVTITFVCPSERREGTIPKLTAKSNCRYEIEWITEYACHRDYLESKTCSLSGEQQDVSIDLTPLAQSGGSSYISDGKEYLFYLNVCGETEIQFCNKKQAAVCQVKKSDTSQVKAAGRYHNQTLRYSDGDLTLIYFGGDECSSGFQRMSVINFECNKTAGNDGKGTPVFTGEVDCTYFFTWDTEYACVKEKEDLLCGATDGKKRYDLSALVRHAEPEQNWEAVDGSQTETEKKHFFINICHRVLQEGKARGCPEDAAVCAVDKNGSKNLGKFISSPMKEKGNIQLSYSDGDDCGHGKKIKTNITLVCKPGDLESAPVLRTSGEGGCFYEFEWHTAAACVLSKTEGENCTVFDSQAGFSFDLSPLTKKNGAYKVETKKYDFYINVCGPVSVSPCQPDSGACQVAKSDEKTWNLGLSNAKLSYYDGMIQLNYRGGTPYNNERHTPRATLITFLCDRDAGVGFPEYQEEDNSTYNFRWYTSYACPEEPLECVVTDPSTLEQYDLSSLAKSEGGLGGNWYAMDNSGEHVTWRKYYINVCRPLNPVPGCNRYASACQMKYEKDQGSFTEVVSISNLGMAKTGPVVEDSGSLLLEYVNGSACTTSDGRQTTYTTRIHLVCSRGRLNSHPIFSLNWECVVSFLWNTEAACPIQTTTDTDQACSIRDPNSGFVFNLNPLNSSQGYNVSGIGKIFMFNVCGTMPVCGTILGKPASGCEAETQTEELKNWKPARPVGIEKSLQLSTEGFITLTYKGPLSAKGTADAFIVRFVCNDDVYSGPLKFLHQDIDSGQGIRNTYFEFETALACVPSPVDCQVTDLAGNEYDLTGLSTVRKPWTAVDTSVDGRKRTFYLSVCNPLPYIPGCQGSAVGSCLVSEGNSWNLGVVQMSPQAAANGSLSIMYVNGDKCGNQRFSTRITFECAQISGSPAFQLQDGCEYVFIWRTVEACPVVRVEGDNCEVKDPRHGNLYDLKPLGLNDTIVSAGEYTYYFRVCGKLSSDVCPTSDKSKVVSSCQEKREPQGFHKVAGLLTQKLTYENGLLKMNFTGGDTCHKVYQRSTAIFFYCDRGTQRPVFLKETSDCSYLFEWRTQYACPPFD
# T1 sequence (P11717 41-1365 limits assumed): as above
smiles,measurement,setting,value
O=C(CCOCCOCCOCCOCCn1cc(CCCCNC(=S)Nc2ccc(O[C@H]3O[C@H](CCP(=O)(O)O)[C@@H](O)[C@H](O)[C@@H]3O)cc2)nn1)Oc1c(F)c(F)c(F)c(F)c1F [520 (I-7)],EC50,"CI-M6PR; Table 16B, antibody conjugate, average loading DAR 4, read-out: EC50 in M6PR binding assay",0.41 nM
same,EC50,"CI-M6PR; Table 16C, cetuximab (anti-EGFR) conjugate, average loading DAR 8, read-out: EC50 in M6PR binding assay",0.41 nM
same,EC50,"CI-M6PR; Table 16D, conjugate, m average loading DAR 2, read-out: EC50 in M6PR binding assay for conjugates of compounds of varying multivalency",3.71 nM
same,EC50,"CI-M6PR; Table 16D, conjugate, m average loading DAR 4, read-out: EC50 in M6PR binding assay for conjugates of compounds of varying multivalency",0.3 nM
same,EC50,"CI-M6PR; Table 16D, conjugate, m average loading DAR 9, read-out: EC50 in M6PR binding assay for conjugates of compounds of varying multivalency",0.23 nM
same,EC50,"CI-M6PR; Table 16E, conjugate, m average DAR 2, read-out: EC50 in M6PR binding assay for conjugates of monovalent compounds of varying linker length and loading",3.71 nM
same,EC50,"CI-M6PR; Table 16E, conjugate, m average DAR 4, read-out: EC50 in M6PR binding assay for conjugates of monovalent compounds of varying linker length and loading",0.3 nM
same,EC50,"CI-M6PR; Table 16E, conjugate, m average DAR 9, read-out: EC50 in M6PR binding assay for conjugates of monovalent compounds of varying linker length and loading",0.23 nM
same,EC50,"CI-M6PR; antibody conjugate, average loading DAR 2, read-out: EC50 (nM) in M6PR binding assay",2.6 nM
same,EC50,"CI-M6PR; antibody conjugate, average loading DAR 4, read-out: EC50 (nM) in M6PR binding assay",0.22 nM
same,EC50,CI-M6PR; [6],0.22 nM
same,"binding affinity to M6PR, rank among conjugates tested (FIGS. 7A-7F)","CI-M6PR; matuzumab conjugates, I-7 at d8 (DAR 8), I-11 at d4 (DAR 4)",highest
same,"cell uptake of Alexa488-IgE target, WT K562 versus CI-M6PR KO cells",[1],CI-M6PR dependent
same,uptake into HepG2 cells,Hep G2 cells,comparable HepG2 cellular uptake
O=C(NCCCCc1cn(CCOCCOCCOCCOCCC(=O)Oc2c(F)c(F)c(F)c(F)c2F)nn1)Nc1ccc(O[C@H]2O[C@H](CCP(=O)(O)O)[C@@H](O)[C@H](O)[C@@H]2O)cc1 [529 (I-38)],uptake into Jurkat cells (cell fluorescence vs conjugate concentration),"Jurkat cells [2]; one hour incubation, FIG. 12",strong cell uptake
same,"relative cellular uptake activity of IgE-Alexa488, omalizumab conjugates of Table 15A",Jurkat cells [3],comparable activity to a thiourea Z^3 analog (520 (I-7) with m=4)
same,EC50,CI-M6PR; [7],0.19 nM
same,EC50,CI-M6PR; [8],0.19 nM
"C#CCCCCCOC[C@H]1O[C@H](OC)[C@@H](O[C@H]2O[C@H](CCP(=O)(O)O)[C@@H](O)[C@H](O)[C@@H]2O)[C@@H](O)[C@@H]1O [Compound I-108, (2-((2R,3S,4S,5S,6R)-6-(((2S,3S,4S,5S,6R)-6-((hept-6-yn-1-yloxy)methyl)-4,5-dihydroxy-2-methoxytetrahydro-2H-pyran-3-yl)oxy)-3,4,5-trihydroxytetrahydro-2H-pyran-2-yl)ethyl)phosphonic acid]",IC50,[4],≥ 500000 pM
O=C(O)CCOCCOCCOCCOCCNC(=O)[C@H](CCCCn1cc(CCCCNC(=O)Nc2ccc(O[C@H]3O[C@H](CCP(=O)(O)O)[C@@H](O)[C@H](O)[C@@H]3O)cc2)nn1)NC(=O)[C@H](CCCCn1cc(CCCCNC(=O)Nc2ccc(O[C@H]3O[C@H](CCP(=O)(O)O)[C@@H](O)[C@H](O)[C@@H]3O)cc2)nn1)NC(=O)[C@H](CCCCn1cc(CCCCNC(=O)Nc2ccc(O[C@H]3O[C@H](CCP(=O)(O)O)[C@@H](O)[C@H](O)[C@@H]3O)cc2)nn1)NC(=O)CCCn1cc(CCCCNC(=O)Nc2ccc(O[C@H]3O[C@H](CCP(=O)(O)O)[C@@H](O)[C@H](O)[C@@H]3O)cc2)nn1 [Compound 772],IC50,[4],50000 to 100000 pM
C[C@H](NC(=O)CCCn1cc(CCCCNC(=S)Nc2ccc(O[C@H]3O[C@H](CCP(=O)(O)O)[C@@H](O)[C@H](O)[C@@H]3O)cc2)nn1)C(=O)N[C@@H](C)C(=O)N[C@@H](C)C(=O)NCCOCCOCCOCCOCCC(=O)Oc1c(F)c(F)c(F)c(F)c1F [528 (I-51)],"uptake into Jurkat cells, average loading DAR9 versus DAR2","Jurkat cells [2]; one hour incubation, FIG. 12",greater uptake
same,uptake into Jurkat cells (cell fluorescence vs conjugate concentration),"Jurkat cells [2]; one hour incubation, FIG. 12",strong cell uptake
same,EC50,"CI-M6PR; EC50 in M6PR binding assay for conjugates of compounds of varying multivalency, Table 16D, conjugate, m average loading DAR 2",2.23 nM
same,EC50,"CI-M6PR; EC50 in M6PR binding assay for conjugates of monovalent compounds of varying linker length and loading, Table 16E, conjugate, m average DAR 2",2.23 nM
same,EC50,"CI-M6PR; Table 16B, antibody conjugate, average loading DAR 8, read-out: EC50 in M6PR binding assay",0.3 nM
same,EC50,"CI-M6PR; Table 16D, conjugate, m average loading DAR 9.5, read-out: EC50 in M6PR binding assay for conjugates of compounds of varying multivalency",0.2 nM
same,EC50,CI-M6PR; [7],0.2 nM
same,EC50,CI-M6PR; [8],0.2 nM
CC(=O)N[C@@H](CCCCn1cc(CCCCNC(=O)Nc2ccc(O[C@H]3O[C@H](CCP(=O)(O)O)[C@@H](O)[C@H](O)[C@@H]3O)cc2)nn1)C(=O)N[C@@H](CCCCn1cc(CCCCNC(=O)Nc2ccc(O[C@H]3O[C@H](CCP(=O)(O)O)[C@@H](O)[C@H](O)[C@@H]3O)cc2)nn1)C(=O)NCCOCCOCCOCCOCCC(=O)O [Compound 769],IC50,[4],100000 to 500000 pM
O=C(CCCCCc1cn(CCOCCOCCOCCOCCC(=O)Oc2c(F)c(F)c(F)c(F)c2F)nn1)Nc1ccc(O[C@H]2O[C@H](CCP(=O)(O)O)[C@@H](O)[C@H](O)[C@@H]2O)cc1 [513 (I-39)],uptake into Jurkat cells (cell fluorescence vs conjugate concentration),"Jurkat cells [2]; one hour incubation, FIG. 12",strong cell uptake
same,EC50,CI-M6PR; [6],0.19 nM
O=C(CCN1C(=O)C=CC1=O)NCCOCCOCCOCCn1cc(CCO[C@H]2O[C@H](CCP(=O)(O)O)[C@@H](O)[C@H](O)[C@@H]2O)nn1 [Compound I-10],intracellular uptake of IgG2a-Alexa488 into Jurkat cells,"Jurkat cells [2]; anti-IgG2a conjugates, 1 h and 24 h (FIGS. 9-10)",sufficiently robust uptake
same,binding affinity to M6PR compared to Compound I-7,CI-M6PR; conjugates of ligand linkers,weaker binding affinity to M6PR compared to Compound I-7; also recorded: weaker binding affinity to M6PR than Compound I-7
same,half-life in mice,[5],longer half-life
